Reference: US20120101083A1, “S1P1 AGONISTS COMPRISING A BICYCLIC N-CONTAINING RING” (GLAXO GROUP LIMITED, priority 2009, published 2012)
Counter-ions that a name gives are not always drawn.

Columns and labels:
[1] = molecular target: T1, S1P1 receptor (S1P1 expressing RH7777 membranes) (Homo sapiens, UniProt P21453); assay: S1P1 GTPγS assay; format: biochemical; conditions: tested in one of the above S1P1 assays (two GTPγS formats)
T1 construct: expressed in transfected cells; host or cells: RH7777 cells (membranes)
T1 sequence (P21453 whole entry): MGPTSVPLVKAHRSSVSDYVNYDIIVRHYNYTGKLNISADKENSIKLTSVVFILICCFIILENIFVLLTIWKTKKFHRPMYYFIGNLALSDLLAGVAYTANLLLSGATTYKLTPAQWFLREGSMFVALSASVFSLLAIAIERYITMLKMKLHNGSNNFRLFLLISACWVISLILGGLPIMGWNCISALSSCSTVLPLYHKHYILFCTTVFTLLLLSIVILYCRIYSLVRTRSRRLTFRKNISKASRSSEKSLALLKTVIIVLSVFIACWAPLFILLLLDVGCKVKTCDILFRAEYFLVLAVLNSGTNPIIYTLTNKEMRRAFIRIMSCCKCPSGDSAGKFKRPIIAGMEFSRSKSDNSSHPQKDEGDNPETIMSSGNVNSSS
Procedure, shortened: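 Membranes from RH7777 cells expressing human S1P1 (1.5 μg/well) precoupled 30 min on ice to WGA SPA beads in 20 mM HEPES pH 7.4, 10 mM MgCl2, 100 mM NaCl, with 10 μM GDP and 90 μg/ml saponin. [35S]-GTPγS 0.5 nM final added with compound; SPA signal read immediately.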

[2] = molecular target: T2, S1P1 (PathHunter CHO-K1 EDG1 β-Arrestin cell line) (Homo sapiens, UniProt P21453); assay: S1P-1 β-Arrestin recruitment assay; format: cell-based; conditions: CHO-K1 EDG1 β-Arrestin cells, chemi-luminescence
T2 construct: host or cells: PathHunter CHO-K1 EDG1 β-Arrestin cell line
T2 sequence (P21453 whole entry): as above
T2 sequence (P32121 whole entry partner): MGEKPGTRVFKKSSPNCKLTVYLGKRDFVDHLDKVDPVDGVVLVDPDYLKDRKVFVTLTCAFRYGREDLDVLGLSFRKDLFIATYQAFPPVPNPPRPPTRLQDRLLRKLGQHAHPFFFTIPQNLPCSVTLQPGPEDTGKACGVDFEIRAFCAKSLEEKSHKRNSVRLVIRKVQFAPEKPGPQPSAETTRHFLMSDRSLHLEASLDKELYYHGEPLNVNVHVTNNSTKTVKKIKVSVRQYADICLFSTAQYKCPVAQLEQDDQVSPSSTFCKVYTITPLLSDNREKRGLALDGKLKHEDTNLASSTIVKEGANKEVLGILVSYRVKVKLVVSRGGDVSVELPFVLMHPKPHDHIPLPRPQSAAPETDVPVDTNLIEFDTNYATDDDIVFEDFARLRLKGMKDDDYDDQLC
Protocol: S1P-1 β-Arrestin Recruitment Assay
β-Arrestin recruitment assays were carried out using the PathHunter CHO-K1 EDG1
β-Arrestin cell line (DiscoveRx Corporation) in a chemi-luminescence detection assay. This cell line stably expresses β-Arrestin 2 and S1P1 fused to complementing portions of β-galactosidase (‘EA’ and ‘pro-link’, respectively) which associate upon Arrestin recruitment to form functional β-galactosidase enzyme.
Cells were grown to 80% confluency in Growth Medium (F12 nutrient HAMS supplemented with 10% heat-inactivated USA FBS, 1% L-glutamax, 800 μg/ml Geneticin and 300 μg/ml Hygromycin). Cells were harvested from the flask using Enzyme Free Cell Dissociation Buffer (Gibco) and washed from flasks with Optimem solution (Gibco). Cells were then centrifuged at 1000 rpm for 2-3 min and resuspended in Assay Buffer (Prepared from Sigma kit H1387 supplemented with 20 ml/L HEPES, 4.7 ml/L NaHCO3, 0.1% pluronic acid F-68 solution, 0.1% BSA and adjusted to pH 7.4 using sodium hydroxide at 1×10^6 cells/ml. Cells were dispensed into assay plates containing compounds (100n1/well of a solution of test compound in 100% DMSO) at 1×10^4 cells/well and incubated at 37° C./5% CO2 for 90 min followed by 15 min at room temperature. 5 μl detection mix (1 part Galacton Star, 5 parts Emerald II, 19 parts Assay Buffer; DiscoveRx) were added per well and the plates incubated at room temperature for 60 min. Luminescence was quantified using a Viewlux plate reader.

| SMILES | EC50 [1] | EC50 [2] |
| --- | --- | --- |
| Cc1c(-c2noc(-c3ccc(OC(C)C)c(C#N)c3)n2)ccc2c1CCN(CCC(N)=O)C2 [Example 1, 3-[6-(5-{3-Cyano-4-[(1-methylethyl)oxy]phenyl}-1,2,4-oxadiazol-3-yl)-5-methyl-3,4-dihydro-2(1H)-isoquinolinyl]propanamide] | ≤ 100 nM | ≤ 10 nM |
| Cc1c(-c2noc(-c3ccc(OC(C)C)c(C#N)c3)n2)ccc2c1CCN(CCC(=O)N(C)C)C2 [Example 2, 3-[6-(5-{3-Cyano-4-[(1-methylethyl)oxy]phenyl}-1,2,4-oxadiazol-3-yl)-5-methyl-3,4-dihydro-2(1H)-isoquinolinyl]-N,N-dimethylpropanamide] | ≤ 100 nM | ≤ 100 nM |
| Cc1c(-c2noc(-c3ccc(OC(C)C)c(C#N)c3)n2)ccc2c1CCN(CC(N)=O)C2 [Example 3, 2-[6-(5-{3-Cyano-4-[(1-methylethyl)oxy]phenyl}-1,2,4-oxadiazol-3-yl)-5-methyl-3,4-dihydro-2(1H)-isoquinolinyl]acetamide] | ≤ 100 nM | ≤ 10 nM |
| Cc1c(-c2noc(-c3ccc(OC(C)C)c(C#N)c3)n2)ccc2c1CCN(C(=O)CNC[C@H](O)CO)C2 [Example 126, 5-[3-(2-{N-[(2S)-2,3-dihydroxypropyl]glycyl}-5-methyl-1,2,3,4-tetrahydro-6-isoquinolinyl)-1,2,4-oxadiazol-5-yl]-2-[(1-methylethyl)oxy]benzonitrile hydrochloride] |  | ≤ 10 nM |
| Cc1c(-c2noc(-c3ccc(OC(C)C)c(C#N)c3)n2)ccc2c1CCN(C(=O)CNC(CO)CO)C2 [Example 127, 5-[3-(2-{N-[2-hydroxy-1-(hydroxymethyl)ethyl]glycyl}-5-methyl-1,2,3,4-tetrahydro-6-isoquinolinyl)-1,2,4-oxadiazol-5-yl]-2-[(1-methylethyl)oxy]benzonitrile hydrochloride] |  | ≤ 10 nM |
| Cc1c(-c2noc(-c3ccc(OC(C)C)c(C#N)c3)n2)ccc2c1CCN(C(=O)CN[C@H](C)CO)C2 [Example 128] |  | ≤ 10 nM |
| Cc1c(-c2noc(-c3ccc(OC(C)C)c(C#N)c3)n2)ccc2c1CCN(C(=O)CN[C@@H](C)CO)C2 [Example 130, 5-[3-(2-{N-[(1S)-2-hydroxy-1-methylethyl]glycyl}-5-methyl-1,2,3,4-tetrahydro-6-isoquinolinyl)-1,2,4-oxadiazol-5-yl]-2-[(1-methylethyl)oxy]benzonitrile] |  | ≤ 10 nM |
| Cc1c(-c2noc(-c3ccc(OC(C)C)c(C#N)c3)n2)ccc2c1CCN(C(=O)CNCCO)C2 [Example 131, formic acid-5-(3-{2-[N-(2-hydroxyethyl)glycyl]-5-methyl-1,2,3,4-tetrahydro-6-isoquinolinyl}-1,2,4-oxadiazol-5-yl)-2-[(1-methylethyl)oxy]benzonitrile (1:1)] |  | ≤ 10 nM |
| Cc1c(-c2noc(-c3ccc(OC(C)C)c(Cl)c3)n2)ccc2c1CCN(CC(=O)NCCO)C2 [Example 136, 2-[6-(5-{3-chloro-4-[(1-methylethyl)oxy]phenyl}-1,2,4-oxadiazol-3-yl)-5-methyl-3,4-dihydro-2(1H)-isoquinolinyl]-N-(2-hydroxyethyl)acetamide hydrochloride] |  | ≤ 10 nM |
| Cc1c(-c2noc(-c3cnc(OC(C)C)c(Cl)c3)n2)ccc2c1CCN(C(CO)CO)C2 [Example 144, 2-[6-(5-{5-chloro-6-[(1-methylethyl)oxy]-3-pyridinyl}-1,2,4-oxadiazol-3-yl)-5-methyl-3,4-dihydro-2(1H)-isoquinolinyl]-1,3-propanediol] |  | ≤ 100 nM |
| CC(C)Oc1ccc(-c2nc(-c3ccc4c(c3)CCN(CC(=O)NCCCO)CC4)no2)cc1C#N [Example 157, 2-[7-(5-{3-cyano-4-[(1-methylethyl)oxy]phenyl}-1,2,4-oxadiazol-3-yl)-1,2,4,5-tetrahydro-3H-3-benzazepin-3-yl]-N-(3-hydroxypropyl)acetamide] |  | ≤ 10 nM |
| CC(C)Oc1ccc(-c2nc(-c3ccc4c(c3)CCN(C(C)C(=O)NCCO)CC4)no2)cc1C#N (stereo not drawn) [Example 161, 2-[7-(5-{3-cyano-4-[(1-methylethyl)oxy]phenyl}-1,2,4-oxadiazol-3-yl)-1,2,4,5-tetrahydro-3H-3-benzazepin-3-yl]-N-(2-hydroxyethyl)propanamide hydrochloride] |  | ≤ 100 nM |

Results, then the compound that gave them:

| EC50 [1] | EC50 [2] | SMILES |
| --- | --- | --- |
|  | ≤ 100 nM | CC(C)Oc1ccc(-c2nc(-c3ccc4c(c3)CCN(C(C)C(=O)N[C@H](C)CO)CC4)no2)cc1C#N (stereo partly drawn) [Example 162, 2-[7-(5-{3-cyano-4-[(1-methylethyl)oxy]phenyl}-1,2,4-oxadiazol-3-yl)-1,2,4,5-tetrahydro-3H-3-benzazepin-3-yl]-N-(1R)-2-hydroxy-1-methylethyl]propanamide hydrochloride] |
|  | ≤ 10 nM | CC(C)Oc1ccc(-c2nc(-c3ccc4c(c3)CCN(C[C@@H](O)C(=O)NCCO)CC4)no2)cc1C#N [Example 164, (2R)-3-[7-(5-{3-cyano-4-[(1-methylethyl)oxy]phenyl}-1,2,4-oxadiazol-3-yl)-1,2,4,5-tetrahydro-3H-3-benzazepin-3-yl]-2-hydroxy-N-(2-hydroxyethyl)propanamide hydrochloride] |
|  | ≤ 10 nM | CC(C)Oc1ccc(-c2nc(-c3ccc4c(c3)CCN(C[C@@H](O)C(=O)N[C@H](C)CO)CC4)no2)cc1C#N [Example 165, (2R)-3-[7-(5-{3-cyano-4-[(1-methylethyl)oxy]phenyl}-1,2,4-oxadiazol-3-yl)-1,2,4,5-tetrahydro-3H-3-benzazepin-3-yl]-2-hydroxy-N-(1R)-2-hydroxy-1-methylethyl]propanamide hydrochloride] |
|  | ≤ 10 nM | Cc1c(-c2noc(-c3cnc(OC(C)C)c(C#N)c3)n2)ccc2c1CCN(CC(=O)N[C@@H](C)CO)C2 [Example 170, 2-[6-(5-{5-cyano-6-[(1-methylethyl)oxy]-3-pyridinyl}-1,2,4-oxadiazol-3-yl)-5-methyl-3,4-dihydro-2(1H)-isoquinolinyl]-N-[(1S)-2-hydroxy-1-methylethyl]acetamide hydrochloride] |
|  | ≤ 10 nM | CC(C)Oc1ccc(-c2nc(-c3cccc4c3CCN(C[C@@H](O)CO)C4)no2)cc1C#N [Example 178, 5-(3-{2-[(2R)-2,3-dihydroxypropyl]-1,2,3,4-tetrahydro-5-isoquinolinyl}-1,2,4-oxadiazol-5-yl)-2-[(1-methylethyl)oxy]benzonitrile hydrochloride] |
|  | ≤ 10 nM | CC(C)Oc1ccc(-c2nc(-c3cccc4c3CCN(C(CO)CO)C4)no2)cc1C#N [Example 180, 5-(3-{2-[2-hydroxy-1-(hydroxymethyl)ethyl]-1,2,3,4-tetrahydro-5-isoquinolinyl}-1,2,4-oxadiazol-5-yl)-2-[(1-methylethyl)oxy]benzonitrile hydrochloride] |
|  | ≤ 100 nM | Cc1c(-c2noc(-c3ccc(OC(C)C)c(Cl)c3)n2)ccc2c1CCN(C(=O)CNC(CO)CO)C2 [Example 190, 2-({2-[6-(5-{3-chloro-4-[(1-methylethyl)oxy]phenyl}-1,2,4-oxadiazol-3-yl)-5-methyl-3,4-dihydro-2(1H)-isoquinolinyl]-2-oxoethyl}amino)-1,3-propanediol hydrochloride] |
|  | ≤ 10 nM | N#Cc1cc(-c2nc(-c3ccc4c(c3)CCN(C(=O)CN)CC4)no2)ccc1OCC(F)(F)F [Example 191, 5-[3-(3-glycyl-2,3,4,5-tetrahydro-1H-3-benzazepin-7-yl)-1,2,4-oxadiazol-5-yl]-2-[(2,2,2-trifluoroethyl)oxy]benzonitrile hydrochloride] |
|  | ≤ 10 nM | Cc1c(-c2noc(-c3ccc(OC(C)C)c(Cl)c3)n2)ccc2c1CCN(CC(=O)NC[C@H](O)CO)C2 [Example 192, 2-[6-(5-{3-chloro-4-[(1-methylethyl)oxy]phenyl}-1,2,4-oxadiazol-3-yl)-5-methyl-3,4-dihydro-2(1H)-isoquinolinyl]-N-[(2S)-2,3-dihydroxypropyl]acetamide hydrochloride] |
|  | ≤ 10 nM | Cc1c(-c2noc(-c3ccc(OC(C)C)c(Cl)c3)n2)ccc2c1CCN(CC(=O)NC(CO)CO)C2 [Example 193, 2-[6-(5-{3-chloro-4-[(1-methylethyl)oxy]phenyl}-1,2,4-oxadiazol-3-yl)-5-methyl-3,4-dihydro-2(1H)-isoquinolinyl]-N-[2-hydroxy-1-(hydroxymethyl)ethyl]acetamide hydrochloride] |
|  | ≤ 10 nM | CC(C)Oc1ccc(-c2nnc(-c3ccc4c(c3)CCN(C(=O)CNCCO)CC4)s2)cc1C#N [Example 200, 5-(5-{3-[N-(2-hydroxyethyl)glycyl]-2,3,4,5-tetrahydro-1H-3-benzazepin-7-yl}-1,3,4-thiadiazol-2-yl)-2-[(1-methylethyl)oxy]benzonitrile] |
|  | ≤ 100 nM | Cc1c(-c2nnc(-c3ccc(OC(C)C)c(Cl)c3)s2)ccc2c1CCN(C(CO)CO)C2 [Example 203, 2-[6-(5-{3-chloro-4-[(1-methylethyl)oxy]phenyl}-1,3,4-thiadiazol-2-yl)-5-methyl-3,4-dihydro-2(1H)-isoquinolinyl]-1,3-propanediol hydrochloride] |
